Test results from patent US20080003127A1, “Non-Ferrous Metal Cover Gases” (Honeywell International Inc., priority 2006, published 2008).
Like-named read-outs stand apart in the source and are kept apart here. Each block holds one compound with its values, some of them ahead of it.

Key:
Boiling point = format: physicochemical; details: for normal boiling point: trans- vs cis-isomer
Description: In addition, preferred cover gas compositions of the present invention comprise […] compounds wherein each compound present in more than an insubstantial amount has a boiling point of less than about 25° C., and even more preferably less than about 0° C. Cover gases that have boiling points close to or above room temperature (i.e. which are liquids at room temperature) typically require additional metering equipment to disperse the cover gas material in a controlled fashion onto the surface of the molten metal.

test subject (e.g. mice) [1] = details: single 4-hour exposure; comparison compound; cited from earlier work
[2] = cardiac sensitization tests; comparison compound; cited from earlier work
[3] = Mg cover gas test: magnesium pieces in quartz tube, oven heated to about 700° C. under cover gas flow, visual inspection; details: for relative performance as cover gas: at about 0.5% by volume; for performance as cover gas: concentrations at or above about 1.5% by volume
Description: A quartz tube having a well was equipped with a metered source of cover gas and a thermocouple which was placed in the well. The well was filled with about 0.2 to 0.3 g of solid magnesium pieces. The cover gas was a mixture of air (a carrier gas) and trans-HFO-1234ze. […]
The tube containing the magnesium was placed in an oven. A flow of cover gas through the tube and over the well containing the magnesium was then established at about 1 liter/minute. The oven was then heated to about 700° C. The flow of cover gas proceeded until a surface film was formed on the magnesium or the magnesium ignited.
After the test was complete, the magnesium was removed from the oven and visually inspected to determine the quality of the cover gas.
The experiments of Examples 1-5 were repeated, except that the cover gas contained […] SF6 or HFC-134a.

[4] = Toxicity, stated in words (no method given); details: comparison in words, found by applicants
test subject (e.g. mice) [5] = experiment: 4-hour LC-50 (concentration in air that kills 50% of test subjects, single exposure); format: in vivo; details: single 4-hour exposure
Description: Preferably, fluoroolefins used in the present compositions have low or no toxicity. In this regard, it is preferred that fluoroolefin components that a present in the compositions in more than an insubstantial amount have a LC-50 value of at least about 100,000 ppm, and more preferably at least about 200,000 ppm. As used herein, the term “LC-50 value” means the concentration of the fluoroolefin in air that will kill 50% of test subject (e.g. mice) when administered as a single exposure (e.g. 4 hours). […] For comparison, C2F5C(O)CF(CF3)2 (a fluoroketone cover gas marketed by Minnesota Mining and Manufacturing Co. of St. Paul, Minn., under the tradename Novec™) has a 4-hour LC-50 of about 100,000.

[6] = background statement in words; cited from earlier work
[7] = 1.5 Vol. % of F-Source in Air, about 700° C.
[8] = 4.5 Vol. % of F-Source in Air, about 700° C.

Compound: O=C(C(F)(F)C(F)(F)F)C(F)(C(F)(F)F)C(F)(F)F [C2F5C(O)CF(CF3)2]
- Boiling Point (° C.) (Boiling point; Table A): 49 °C
- 4-hour LC-50 (test subject (e.g. mice) [1]): about 100,000 ppm
- NOAEL [2]: 10 vol. %

Compound: FC(F)(F)C(F)(F)F [C2F6]
- Boiling Point (° C.) (Boiling point; Table A): −78 °C

Compound: O=C=O [CO2, carbon dioxide]
- Boiling Point (° C.) (Boiling point): −78 °C

- Boiling Point (° C.) (Boiling point; Table A): −26 °C
Compound: FCC(F)(F)F [HFC-134a, 1,1,1,2-tetrafluoroethane]
- Quality of Mg Protection ([3]; 0.10 Vol. % of F-Source in Air, about 700° C.): most brown specks, protected in general
- Quality of Mg Protection ([3]; 0.60 Vol. % of F-Source in Air, about 700° C.): white coating with no brown spots
- Quality of Mg Protection [3, 7]: white coating; pieces not stuck together
- Quality of Mg Protection [3, 8]: white coating; pieces not stuck together
- relative performance as cover gas [3]: performing better than SF6
- performance as cover gas [3]: performed well

Compound: CC(F)F [HFC-152a, difluoroethane]
- Boiling Point (° C.) (Boiling point; Table A): −25 °C

Compound: C=C(Cl)C(F)(F)F [HFCO-1233xf, 1,1,1-trifluoro-2-chloro-propene]
- Boiling Point (° C.) (Boiling point; Table A): +12 °C

Compound: FC(F)=CC(F)(F)F [HFO-1225zc, CF3CH═CF2]
- relative toxicity between isomers [4]: much more toxic

Compound: C=C(F)C(F)(F)F [HFO-1234yf, 1,1,1,2-tetrafluoropropene]
- Boiling Point (° C.) (Boiling point; Table A): −30 °C
- 4-hour LC-50 (test subject (e.g. mice) [5]): at least 200,000 ppm

Compound: FC=CC(F)(F)F [HFO-1234ze, 1,1,1,3-tetrafluoropropene]
- 4-hour LC-50 (test subject (e.g. mice) [5]): at least 100,000 ppm

Compound: FN(F)F [NF3, nitrogen trifluoride]
- Boiling Point (° C.) (Boiling point; Table A): −121 °C
- toxicity (known) [6]: toxic and/or hazardous

- Boiling Point (° C.) (Boiling point; Table A): −82 °C
Compound: FS(F)(F)(F)(F)F [SF6, sulfurhexafluoride]
- Quality of Mg Protection ([3]; 0.11 Vol. % of F-Source in Air, about 700° C.): failure; Mg ignited
- Quality of Mg Protection ([3]; 0.20 Vol. % of F-Source in Air, about 700° C.): several brownish regions, very little luster,
- Quality of Mg Protection ([3]; 0.43 Vol. % of F-Source in Air, about 700° C.): coating less white; brownish regions;
- Quality of Mg Protection [3, 7]: white coating; pieces not stuck together
- Quality of Mg Protection [3, 8]: white coating; pieces not stuck together
- performance as cover gas [3]: performed well
- toxicity (known) [6]: non-toxic

Compound: O=S(=O)(F)F [SO2F2, sulfuryl fluoride]
- Boiling Point (° C.) (Boiling point; Table A): −55 °C
- toxicity (known) [6]: toxic and/or hazardous

Compound: FB(F)F [boron trifluoride (BF3), boron trifluoride]
- toxicity (known) [6]: very toxic

Compound: FC(F)(F)/C=C\Cl [cis-HFCO-1233zd, cis-1,1,1-trifluoro-3-chloro-propene]
- Boiling Point (° C.) (Boiling point; Table A): +19 °C

Compound: F/C=C(\F)C(F)(F)F [cis-HFO-1225ye, cis-1,1,1,2,3-pentafluoropropene]
- relative toxicity between isomers [4]: relatively low degree of toxicity

Compound: F/C=C(\F)C(F)F [cis-HFO-1234ye]
- Boiling Point (° C.) (Boiling point): +2 °C

Compound: FC=CC(F)(F)F [cis-HFO-1234ze, 1,1,1,3-tetrafluoropropene]
- normal boiling point (Boiling point): 9 °C

Compound: O=NF [nitrosyl fluoride]
- toxicity (known) [6]: toxic and/or hazardous

Compound: FC(F)(F)/C=C/Cl [trans-HFCO-1233zd, trans-1,1,1-trifluoro-3-chloro-propene]
- Boiling Point (° C.) (Boiling point; Table A): +19 °C

Compound: F/C=C/C(F)(F)F [trans-HFO-1234ze, trans-1,3,3,3-tetrafluoropropene]
- Quality of Mg Protection ([3]; 0.09 Vol. % of F-Source in Air, about 700° C.): a few brown specks, well protected in general
- Quality of Mg Protection ([3]; 0.26 Vol. % of F-Source in Air, about 700° C.): white with dark spots, no pieces stuck together
- Quality of Mg Protection ([3]; 0.46 Vol. % of F-Source in Air, about 700° C.): white coating with no brown spots
- Quality of Mg Protection [3, 7]: white coating; pieces not stuck together
- Quality of Mg Protection [3, 8]: white coating; pieces not stuck together
- protection of magnesium (visual inspection) ([3]; Example 1: about 4.5% by volume in air, about 700° C.): well protected
- protection of magnesium (visual inspection) ([3]; Example 2: about 1.5% by volume in air): well protected
- protection of magnesium (visual inspection) ([3]; Example 3: about 0.5% by volume in air): well protected
- protection of magnesium (visual inspection) ([3]; Example 4: about 0.2% by volume in air): well protected
- protection of magnesium (visual inspection) ([3]; Example 5: about 0.1% by volume in air): protected in general
- relative performance as cover gas [3]: performing better than HFC-134a
- performance as cover gas [3]: performed well
- Boiling Point (° C.) (Boiling point; Table A): −18.4 °C
- normal boiling point (Boiling point): −18.4 °C
- relative toxicity between isomers [4]: less toxic than the cis-isomer

Compound: methoxy-nonafluorobutane [HFE-7100]
- Boiling Point (° C.) (Boiling point; Table A): 61 °C
